The subject of data set [1] is CCRF-CEM. Briefly: Compound was tested for cellular toxicity against HIV in CEM cells at concentration up to 100 uM; IA means inactive. The data set is classed as cell-based. Conditions: human; call rule not given here.
In data set [2] the test system is CCRF-CEM. In words: The inhibitory dose against HIV in CEM cells was evaluated. The data set is classed as functional, Homo sapiens. Conditions: read-out: ID50 (the source's name).

As for `Cc1cn([C@@H]2C=C[C@H](CO)O2)c(=O)[nH]c1=O`, the Toxicity entry in the data set with CCRF-CEM [1] is listed as “Not Active”.

For `Nc1ccn([C@@H]2CC[C@H](CO)O2)c(=O)n1`, the IC50 in the data set on CCRF-CEM [2] (Homo sapiens, CCRF-CEM) amounted to 660 nM.

Take `Nc1ccn([C@@H]2C=C[C@H](CO)O2)c(=O)n1`: the Toxicity result in the data set on CCRF-CEM [1] was “Not Active”.

In the case of `Nc1ccn(C2CC[C@H](CO)O2)c(=O)n1` (single isomer, unassigned), in the data set on CCRF-CEM [1], the Toxicity result is recorded as “Not Active”.

Take `Nc1ncnc2c1ncn2[C@H]1CC[C@@H](CO)O1` (single isomer, unassigned): the Toxicity entry in the data set with CCRF-CEM [1] was “Not Active”.

As for `Nc1ccn([C@H]2CC[C@@H](CO)O2)c(=O)n1` (stereo in doubt; form 1) [ZALCITABINE], the IC50 in the data set on CCRF-CEM [2] was under 100 nM.

As to `Nc1ccn([C@H]2CC[C@@H](CO)O2)c(=O)n1` (stereo in doubt; form 2) [ZALCITABINE], the IC50 in the data set on CCRF-CEM [2] worked out at 40 nM.

(Values after ChEMBL document CHEMBL1125943, “Preparation of the geometric isomers of DDC, DDA, D4C and D4T as potential anti-HIV agents” (Bioorg Med Chem Lett, 1991).)
